Data taken from article PMC10224356, “Trisubstituted 1,3,5-Triazines as Histamine H4 Receptor Antagonists with Promising Activity In Vivo” (Molecules, 2023).
“Also recorded” adds a separate entry of the source.

How the values were obtained:
HepG2 cells = assay: Toxicity evaluation, MTS assay in HepG2 cells; assay type: cell-based, human
From the text: (§1) Toxic substances can affect the cells. Early in the research process, it is crucial to determine whether obtained compounds can induce such effects. From our series of compounds, compound 6 was selected for toxicity evaluation. MTS assay was used to test toxicity on HepG2 and SH-SY5Y cell lines. HepG2 cells closely reflect the human liver cell model whereas SH-SY5Y neuroblastoma cells are used in models of neurodegenerative diseases (especially Parkinson’s disease) to study the cellular and molecular factors that lead to these disorders.
(§2) Compound 6, at concentrations ranging from 0.78 µM to 50 µM, was incubated with the respective cell lines for 48 h (HepG2) or 24 h (SH-SY5Y). Then, MTS reagent was added and absorbances at 490 nm were read after 1 h. […] The reduction in SH-SY5Y cell viability (Figure 6B) of an average of 4–12% was observed over the range of concentrations.
The hepatoma cell line HepG2 (ATCC® HB-8065TM) and SH-SY5Y CRL-2266 neuroblastoma cell line were used to evaluate the toxicity of tested compounds. Tests were conducted as described previously. CellTiter 96® Aqueous Non-Radioactive Cell Proliferation Assay was purchased from Promega (Madison, WI, USA). Compounds were tested at 7 concentrations (0.78, 1.56, 3.125, 6.25, 12.5, 25 and 50 µM). Cell viability was determined after incubation with compounds for […]. […]

SH-SY5Y cells = assay: Toxicity evaluation, MTS assay in SH-SY5Y cells; assay type: cell-based, human
From the text: as §1, §2
The hepatoma cell line HepG2 (ATCC® HB-8065TM) and SH-SY5Y CRL-2266 neuroblastoma cell line were used to evaluate the toxicity of tested compounds. Tests were conducted as described previously. CellTiter 96® Aqueous Non-Radioactive Cell Proliferation Assay was purchased from Promega (Madison, WI, USA). Compounds were tested at 7 concentrations (0.78, 1.56, 3.125, 6.25, 12.5, 25 and 50 µM). Cell viability was determined after incubation with compounds for […]. Each experiment was performed twice in triplicate.

rats = assay: Carrageenan-induced inflammatory pain and oedema; assay type: in vivo
From the text: We wanted to confirm the activity in an additional model of inflammation in another species. To evaluate the influence of compound 6 on acute inflammation, such as oedema and hyperalgesia, we tested it in the carrageenan-induced inflammation model in rats. […] As oedema is one of the most significant symptoms of inflammation resulting from the release of inflammatory mediators, we may conclude that compound 6 has some anti-inflammatory activity. […] The response to mechanical stimuli was observed as the pain withdrawal threshold (Figure 8B) decreased from the value of 138.33 ± 1.05 g (baseline) before carrageenan injection to the value of 120.83 ± 2.0 g (87.3% of the baseline) 3 h after injection, 125.83 ± 2.51 (90.9% of the baseline) 6 h after injection, and 124.17 ± 2.0 (89.7% of the baseline). […] The results obtained confirmed its analgesic activity in mechanical inflammatory hyperalgesia. […] We claim that the effect may result from the inhibition of the release of inflammatory mediators and subsequent inhibition of peripheral and central sensitization. […] The effect was not as persistent as in the mechanical hyperalgesia and was observed only 1, 2 and 3 h after induction of inflammation.
The procedure used was described previously. Briefly, the inflammation and paw oedema was induced by subplantar injection of 0.1 mL of 1% carrageenan (made in PBS) into the right hind paw of the rat. The paw volume was measured by the dislocation of the water column of the plethysmometer (Plethysmometer 7140, Ugo Basile). The hyperalgesic response to mechanical stimuli was measured using Analgesy Meter 37215, Ugo Basile. The intensity of the applied force, in grams, was recorded when the paw was withdrawn (withdrawal threshold). Moreover, the hyperalgesic response to thermal stimuli was determined by using a plantar test apparatus (Commat Ltd., Ankara, Turkey). The latency to the heat stimulus was automatically recorded. Three subsequent applications of the heating stimulus were done, separated by 1- to 2-min intervals, and the mean of these measures was taken.
Figure 8 Effect of compound 6 on carrageenan-induced oedema (A), mechanical hyperalgesia (B) and thermal hyperalgesia (C) developed after subplantar injection of 1% carrageenan in rats. Data are expressed as means ± SEM for 5–6 animals. Time 0—the initial reaction considered as the nociceptive reaction before carrageenan administration. Statistical significance compared to vehicle-treated animals: * p < 0.05, ** p < 0.01, *** p < 0.001, **** p < 0.0001. Statistical analysis: two-way ANOVA post hoc Bonferroni test. Statistical significance compared to initial value (0 time point) in the vehicle-treated group: # p < 0.05, ## p < 0.01, ### p < 0.0001. Statistical analysis: one-way ANOVA followed by Dunnett’s post hoc test.

hH4R = hH4R (Homo sapiens, UniProt Q9H3N8); assay: cAMP accumulation assay (LANCE Ultra cAMP, CHO-K1 cells stably expressing hH4R); assay type: cell-based; parameters: expressed in transfected cells
hH4R, sequence (Q9H3N8 whole entry): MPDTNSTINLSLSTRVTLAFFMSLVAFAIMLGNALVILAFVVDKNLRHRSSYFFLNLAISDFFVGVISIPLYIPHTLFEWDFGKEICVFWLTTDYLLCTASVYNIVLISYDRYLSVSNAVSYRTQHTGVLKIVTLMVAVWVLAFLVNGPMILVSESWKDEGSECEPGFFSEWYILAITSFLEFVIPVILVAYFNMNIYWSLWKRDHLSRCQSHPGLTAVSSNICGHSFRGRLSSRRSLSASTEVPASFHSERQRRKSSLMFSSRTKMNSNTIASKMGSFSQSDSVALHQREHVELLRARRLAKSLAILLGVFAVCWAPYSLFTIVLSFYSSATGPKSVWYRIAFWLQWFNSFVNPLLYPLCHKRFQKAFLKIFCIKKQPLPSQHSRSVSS
Method: Intrinsic activity via the Gα subunit was measured using a LANCE Ultra cAMP detection kit and CHO-K1 cells stably expressing hH4R. Adenyl cyclase was stimulated by forskolin (10 µM).
Intrinsic activity in G protein-dependent pathway was measured with homogenous TR-FRET immunoassay, using LANCE Ultra cAMP kit and CHO-K1 H4R cell line or γ-irradiated recombinant CHO-K1 H4R cells (all from PerkinElmer). […] If the CHO-K1 H4R cell line was used it had been cultivated in DMEM/F12 10% FBS 400 µg/mL geneticin and passaged three times a week. […] The antagonist activity was measured in a white, opaque, 384-well microplate (PerkinElmer) with a total volume of 20 µL. […] After incubation, 5 µL of europium chelate-labelled cAMP tracer and 5 µl of ULight-labelled anti-cAMP mAb working solutions were added, mixed and incubated for 1 h. TR-FRET signal was read using a microplate reader (PerkinElmer, Waltham, MA, USA).

[1] = even at the highest concentration (50 µM)

SMILES: CN1CCN(c2nc(N)nc(CC3CCCC3)n2)CC1 [Compound 6, 4-(Cyclopentylmethyl)-6-(4-methylpiperazin-1-yl)-1,3,5-triazin-2-amine]
- Toxicity in HepG2 cells (MTS) (HepG2 cells; 0.78–50 µM, 48 h incubation): no toxicity up to 50 µM; also recorded: did not show significant toxicity in the tested concentration range (except for 6.25 µM concentration)
- Reduction of HepG2 cell viability (HepG2 cells; [1]): ≤ 50%
- Reduction in SH-SY5Y cell viability, average over the range of concentrations (SH-SY5Y cells; 0.78–50 µM): 4–12%
- Toxicity in SH-SY5Y cells (MTS) (SH-SY5Y cells; 0.78–50 µM, 24 h incubation): no toxicity up to 50 µM
- Reduction of SH-SY5Y cell viability (SH-SY5Y cells; [1]): ≤ 50%
- Pain withdrawal threshold (mechanical hyperalgesia) (rats; 50 mg/kg, 3 h after carrageenan (vehicle 87.3%)): 122.1 % of the baseline
- Pain withdrawal threshold (mechanical hyperalgesia) (rats; 50 mg/kg, 6 h after carrageenan (vehicle 90.9%)): 119.5 % of the baseline
- Pain withdrawal threshold (mechanical hyperalgesia) (rats; 50 mg/kg, third time point (time not given, presumably 24 h; vehicle 89.7%)): 111.7 % of the baseline
- Paw volume increase (carrageenan oedema) (rats; 75 mg/kg, 1 h after carrageenan (vehicle 48.9%)): 22.1%
- Paw withdrawal latency (thermal hyperalgesia) (rats; 75 mg/kg, 1 h after inflammation induction (vehicle 62.44%)): 129.5 % of baseline
- Paw volume increase (carrageenan oedema) (rats; 75 mg/kg, 2 h after carrageenan (vehicle 79.3%)): 46.3%
- Paw withdrawal latency (thermal hyperalgesia) (rats; 75 mg/kg, 2 h after inflammation induction (vehicle 65.13%)): 103.6 % of baseline
- Pain withdrawal threshold (mechanical hyperalgesia) (rats; 75 mg/kg, 3 h after carrageenan): 107.5 % of the baseline
- Paw volume increase (carrageenan oedema) (rats; 75 mg/kg, 3 h after carrageenan (vehicle 113.0%)): 72.6%
- Paw withdrawal latency (thermal hyperalgesia) (rats; 75 mg/kg, 3 h after inflammation induction (vehicle 45.63%)): 86.3 % of baseline
- Pain withdrawal threshold (mechanical hyperalgesia) (rats; 75 mg/kg, 6 h after carrageenan): 113.2 % of the baseline
- Paw volume increase (carrageenan oedema) (rats; 75 mg/kg, 6 h after carrageenan (vehicle 115.2%)): 76.8%
- Paw volume increase (carrageenan oedema) (rats; 75 mg/kg, 24 h after carrageenan (vehicle 114.1%)): 55.8%
- Pain withdrawal threshold (mechanical hyperalgesia) (rats; 75 mg/kg, third time point (time not given, presumably 24 h)): 113.8 % of the baseline
- melting point: 165 to 168 °C
- IC50 (hH4R; antagonist mode, forskolin 10 µM, histamine 140 nM, CHO-K1 hH4R cells, read-out: cAMP hH4R IC50 ± SEM): 10 ± 2 nM
- Kb (hH4R; calculated from IC50 by Leff–Dougall variant of Cheng–Prusoff equation, read-out: pKb cAMP ± SEM (converted)): 3.55 nM
